According to patent US12410160B2 (Gilead Sciences, Inc., priority 2021, dated 2025):
Several values for one entry are separate records, joined by “and”; a condition that tells them apart may be missing. Identical values can stand only once.

Columns and labels:
human KHK-C = human KHK-C (Homo sapiens (Human), UniProt P50053); experiment: KHK Biochemical Assay (IC50), ADP-Glo, KHK-C; details: ADP-Glo; average of at least two separate assays
Protocol: (§1) The His-tagged fusion protein was expressed using BL21 (DE3) with IPTG induction and purified using Ni-NTA column followed by dialysis into final buffer containing 25 mM Tris-HCl pH 8.0, 250 mM NaCl.
(§2) KHK Biochemical Assay (IC50)
(§3) Compounds were tested for KHK enzyme inhibition in a high-throughput 384-well assay format using the ADP-Glo assay (Promega) in buffer consisting of 50 mM Hepes (pH 7.4), 140 mM KCl, 5 mM MgCl2 and 0.01% Triton-X. 0.2 nM. […] Compounds were serially diluted (1:3) in DMSO.
(§4) The compounds were pre-incubated with 5 μL of 2× final enzyme concentration for 30 minutes before adding 5 μL of 2× final concentration of ATP and fructose. The plates were incubated at room temperature for 4 hours before adding ADP-Glo reagent to quench the enzyme reaction, followed by incubation at room temperature for 1 hour. The ADP-Glo detection reagent was then added to the plates and luminescence was measured on the Envision plate reader after 1 hour.

human KHK-A = human KHK-A (Homo sapiens (Human), UniProt P50053); experiment: KHK Biochemical Assay (IC50), ADP-Glo, KHK-A; details: ADP-Glo; average of at least two separate assays
human KHK-A, sequence (P50053 other isoform, or with tags, fused parts or gaps): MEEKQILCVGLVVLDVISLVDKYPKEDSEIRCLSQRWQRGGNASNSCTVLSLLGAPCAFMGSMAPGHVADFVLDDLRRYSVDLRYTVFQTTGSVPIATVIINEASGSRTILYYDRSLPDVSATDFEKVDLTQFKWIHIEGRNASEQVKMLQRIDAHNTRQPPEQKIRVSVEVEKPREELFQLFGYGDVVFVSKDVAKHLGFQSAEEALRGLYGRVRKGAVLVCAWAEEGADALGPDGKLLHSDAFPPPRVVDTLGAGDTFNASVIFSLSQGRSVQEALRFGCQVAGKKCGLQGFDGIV
Protocol: as §1, §2, §3, §4

human KHK-C, sequence (P50053 whole entry, the tested form may be a part): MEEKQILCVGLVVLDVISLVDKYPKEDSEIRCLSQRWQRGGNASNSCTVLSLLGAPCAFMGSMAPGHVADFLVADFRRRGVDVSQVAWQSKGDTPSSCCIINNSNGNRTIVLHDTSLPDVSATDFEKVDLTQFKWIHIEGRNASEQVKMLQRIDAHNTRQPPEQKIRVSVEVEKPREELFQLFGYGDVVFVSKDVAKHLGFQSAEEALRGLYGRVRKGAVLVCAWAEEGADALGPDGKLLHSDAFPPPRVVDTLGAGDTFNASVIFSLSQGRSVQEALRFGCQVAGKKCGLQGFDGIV

Row | SMILES | IC50 (human KHK-C) | IC50 (human KHK-A)
1 | C[C@H]1CCN1c1nc(-c2ccccc2)c2c(n1)C1CCC2C1 (stereo partly drawn) [Example 31, 2-((S)-2-methylazetidin-1-yl)-4-phenyl-5,6,7,8-tetrahydro-5,8-methanoquinazoline] | 1480 nM | 935 nM
2 | C[C@H]1[C@H](O)CN1c1nc2c(c(-c3cccc(C(N)=O)c3)n1)CCC2 [Example 32] | 125 nM | 86.8 nM
3 | C[C@H]1CCN1c1nc(-c2cccc(C(N)=O)c2)c2c(n1)C1CCC2C1 (stereo partly drawn) [Example 33, 3-(2-((S)-2-methylazetidin-1-yl)-5,6,7,8-tetrahydro-5,8-methanoquinazolin-4-yl)benzamide] | 240 nM | 272 nM
4 | C[C@H]1CCN1c1nc(-c2cn[nH]c2)c2c(cnn2C)n1 [Example 35, (S)-1-methyl-5-(2-methylazetidin-1-yl)-7-(1H-pyrazol-4-yl)-1H-pyrazolo[4,3-d]pyrimidine] | 220 nM | 189 nM
5 | C[C@H]1CCN1c1nc(-c2cccc(S(N)(=O)=O)c2)c2c(cnn2C)n1 [Example 37, (S)-3-(1-methyl-5-(2-methylazetidin-1-yl)-1H-pyrazolo[4,3-d]pyrimidin-7-yl)benzenesulfonamide] | 213 nM | 224 nM
6 | C[C@H]1CCN1c1nc2c(c(-c3cccc(C(=O)NCCNC(=O)OC(C)(C)C)c3)n1)CCC2 [Example 51, tert-butyl (S)-(2-(3-(2-(2-methylazetidin-1-yl)-6,7-dihydro-5H-cyclopenta[d]pyrimidin-4-yl)benzamido)ethyl)carbamate] | 309 nM | 144 nM
7 | C[C@H]1CCN1c1nc2c(c(-c3ccc(-c4ccccc4)nc3)n1)CCC2 [Example 55, (S)-2-(2-methylazetidin-1-yl)-4-(6-phenylpyridin-3-yl)-6,7-dihydro-5H-cyclopenta[d]pyrimidine] | 801 nM | 1080 nM
8 | C[C@H]1CCN1c1nc(-c2cccc(C(N)=O)c2)c2c(n1)[C@H]1CC[C@@H]2C1 [Example 62, 3-((5R,8S)-2-((S)-2-methylazetidin-1-yl)-5,6,7,8-tetrahydro-5,8-methanoquinazolin-4-yl)benzamide] | 2930 nM | 1920 nM
9 | C[C@H]1CCN1c1nc2c(c(-c3cccc(C(=O)N4CC(CC(=O)O)C4)c3)n1)CCC2 [Example 69, (S)-2-(1-(3-(2-(2-methylazetidin-1-yl)-6,7-dihydro-5H-cyclopenta[d]pyrimidin-4-yl)benzoyl)azetidin-3-yl)acetic acid] | 145 nM | 286 nM
10 | C[C@H]1CCN1c1nc2c(c(-c3cccc(NS(=O)(=O)c4cn(C)cn4)c3)n1)CCC2 [Example 73, (S)-1-methyl-N-(3-(2-(2-methylazetidin-1-yl)-6,7-dihydro-5H-cyclopenta[d]pyrimidin-4-yl)phenyl)-1H-imidazole-4-sulfonamide] | 156 nM | 175 nM
11 | Cc1noc(C)c1S(=O)(=O)Nc1cccc(-c2nc(N3CC[C@@H]3C)nc3c2CCC3)c1 [Example 76, (S)-3,5-dimethyl-N-(3-(2-(2-methylazetidin-1-yl)-6,7-dihydro-5H-cyclopenta[d]pyrimidin-4-yl)phenyl)isoxazole-4-sulfonamide] | 876 nM | 1150 nM
12 | C[C@H]1CCN1c1nc2c(c(-c3cccc(C(=O)N4CC[C@H]4C(=O)O)c3)n1)CCC2 [Example 77, (S)-1-(3-(2-((S)-2-methylazetidin-1-yl)-6,7-dihydro-5H-cyclopenta[d]pyrimidin-4-yl)benzoyl)azetidine-2-carboxylic acid] | 315 nM | 285 nM
13 | C[C@H]1CCN1c1nc2c(c(-c3cccc(C(=O)N4CC[C@@H]4C(=O)O)c3)n1)CCC2 [Example 78, (R)-1-(3-(2-((S)-2-methylazetidin-1-yl)-6,7-dihydro-5H-cyclopenta[d]pyrimidin-4-yl)benzoyl)azetidine-2-carboxylic acid] | 239 nM and 129 nM | 193 nM and 134 nM
14 | CC(=O)Nc1ncc(S(=O)(=O)Nc2cccc(-c3nc(N4CC[C@@H]4C)nc4c3CCC4)c2)s1 [Example 84, (S)—N-(5-(N-(3-(2-(2-methylazetidin-1-yl)-6,7-dihydro-5H-cyclopenta[d]pyrimidin-4-yl)phenyl)sulfamoyl)thiazol-2-yl)acetamide] | 279 nM | 296 nM
15 | C[C@H]1[C@H](N)CN1c1nc2c(c(-c3ccc(C(N)=O)cc3)n1)CCC2 [Example 93] | > 5000 nM | > 5000 nM
16 | c1ccc(-c2nc(C3CC3)nc3c2CCC3)cc1 [Example 96, 2-cyclopropyl-4-phenyl-6,7-dihydro-5H-cyclopenta[d]pyrimidine] | > 5000 nM | 4660 nM

Further lines, results first:

Row | IC50 (human KHK-C) | IC50 (human KHK-A) | SMILES
17 | 57 nM | 54.3 nM | CC(=O)Nc1cccc(-c2nc(N3CC[C@@H]3C)nc3c2CCC3)c1 [Example 40, (S)—N-(3-(2-(2-methylazetidin-1-yl)-6,7-dihydro-5H-cyclopenta[d]pyrimidin-4-yl)phenyl)acetamide]
18 | 22.7 nM | 31.8 nM | C[C@H]1CCN1c1nc2c(c(-c3cccc(NS(C)(=O)=O)c3)n1)CCC2 [Example 42, (S)—N-(3-(2-(2-methylazetidin-1-yl)-6,7-dihydro-5H-cyclopenta[d]pyrimidin-4-yl)phenyl)methanesulfonamide]
19 | 108 nM | 118 nM | C[C@H]1CCN1c1nc2c(c(-c3cccs3)n1)CCC2 [Example 45, (S)-2-(2-methylazetidin-1-yl)-4-(thiophen-2-yl)-6,7-dihydro-5H-cyclopenta[d]pyrimidine]
20 | 7.6 nM | 10 nM | C[C@H]1CCN1c1nc2c(c(-c3cccc(C4CC4C(=O)O)c3)n1)CCC2 (stereo partly drawn) [Example 46, 2-(3-(2-((S)-2-methylazetidin-1-yl)-6,7-dihydro-5H-cyclopenta[d]pyrimidin-4-yl)phenyl)cyclopropane-1-carboxylic acid]
21 | 222 nM | 125 nM | C[C@H]1CCN1c1nc2c(c(-c3ccc(C#N)s3)n1)CCC2 [Example 49, (S)-5-(2-(2-methylazetidin-1-yl)-6,7-dihydro-5H-cyclopenta[d]pyrimidin-4-yl)thiophene-2-carbonitrile]
22 | 42.7 nM | 22.2 nM | C[C@H]1CCN1c1nc2c(c(-c3cccc(C(=O)NCCN)c3)n1)CCC2 [Example 52, (S)—N-(2-aminoethyl)-3-(2-(2-methylazetidin-1-yl)-6,7-dihydro-5H-cyclopenta[d]pyrimidin-4-yl)benzamide]
23 | 194 nM | 130 nM | CNCCNC(=O)c1cccc(-c2nc(N3CC[C@@H]3C)nc3c2CCC3)c1 [Example 53, (S)—N-(2-(methylamino)ethyl)-3-(2-(2-methylazetidin-1-yl)-6,7-dihydro-5H-cyclopenta[d]pyrimidin-4-yl)benzamide]
24 | 40.4 nM | 42 nM | C[C@H]1CCN1c1nc2c(c(-c3cccc(S(=O)(=O)NCCO)c3)n1)CCC2 [Example 54, (S)—N-(2-hydroxyethyl)-3-(2-(2-methylazetidin-1-yl)-6,7-dihydro-5H-cyclopenta[d]pyrimidin-4-yl)benzenesulfonamide]
25 | 7.7 nM | 3.8 nM | C[C@H]1CCN1c1nc2c(c(-c3ccc(C(N)=O)s3)n1)CCC2 [Example 56, (S)-5-(2-(2-methylazetidin-1-yl)-6,7-dihydro-5H-cyclopenta[d]pyrimidin-4-yl)thiophene-2-carboxamide]
26 | 90.3 nM | 56.8 nM | C[C@H]1CCN1c1nc2c(c(-c3cccc(C(=O)NCCO)c3)n1)CCC2 [Example 61, (S)—N-(2-hydroxyethyl)-3-(2-(2-methylazetidin-1-yl)-6,7-dihydro-5H-cyclopenta[d]pyrimidin-4-yl)benzamide]
27 | 107 nM | 52.7 nM | C[C@H]1CCN1c1nc2c(c(-c3cccc(C(=O)Nc4cn[nH]c4)c3)n1)CCC2 [Example 64, (S)-3-(2-(2-methylazetidin-1-yl)-6,7-dihydro-5H-cyclopenta[d]pyrimidin-4-yl)-N-(1H-pyrazol-4-yl)benzamide]
28 | 245 nM | 150 nM | C[C@H]1CCN1c1nc2c(c(-c3cccc(C(=O)Nc4cc[nH]n4)c3)n1)CCC2 [Example 65, (S)-3-(2-(2-methylazetidin-1-yl)-6,7-dihydro-5H-cyclopenta[d]pyrimidin-4-yl)-N-(1H-pyrazol-3-yl)benzamide]
29 | 140 nM | 128 nM | C[C@H]1CCN1c1nc2c(c(-c3cccc(C(=O)NC4(C(=O)O)CC4)c3)n1)CCC2 [Example 67, (S)-1-(3-(2-(2-methylazetidin-1-yl)-6,7-dihydro-5H-cyclopenta[d]pyrimidin-4-yl)benzamido)cyclopropane-1-carboxylic acid]
30 | 45.1 nM | 94.3 nM | C[C@H]1CCN1c1nc2c(c(-c3cccc(C(=O)N4CC(C(=O)O)C4)c3)n1)CCC2 [Example 68, (S)-1-(3-(2-(2-methylazetidin-1-yl)-6,7-dihydro-5H-cyclopenta[d]pyrimidin-4-yl)benzoyl)azetidine-3-carboxylic acid]
31 | 104 nM | 107 nM | C[C@H]1CCN1c1nc2c(c(-c3cccc(N)c3)n1)CCC2 [Example 71, (S)-3-(2-(2-methylazetidin-1-yl)-6,7-dihydro-5H-cyclopenta[d]pyrimidin-4-yl)aniline]
32 | 1370 nM | 1120 nM | C[C@H]1CCN1c1nc2c(c(-c3cc(C(N)=O)ns3)n1)CCC2 [Example 85, (S)-5-(2-(2-methylazetidin-1-yl)-6,7-dihydro-5H-cyclopenta[d]pyrimidin-4-yl)isothiazole-3-carboxamide]
